Measured values reported in patent US8901307B2, “Chemical compounds 251” (AstraZeneca AB, priority 2008, dated 2014).
Counter-ions that a name gives are not always drawn.

Assays:
human His-PIM2 [23-299] = target: T1, human His-PIM2 [23-299] (Homo sapiens, UniProt Q9P1W9); assay: PIM2 in-vitro mobility shift assay (Caliper LC3000, FL-Ahx-Bad phosphorylation); type: biochemical; settings: 1.5 h; percent inhibition at 0.3 uM compound; read-out: PIM2 % I at 0.3 uM
T1 construct: purified human His-PIM2 [23-299] enzyme; His (N); host or cells: E. coli
T1 sequence (Q9P1W9 23-299): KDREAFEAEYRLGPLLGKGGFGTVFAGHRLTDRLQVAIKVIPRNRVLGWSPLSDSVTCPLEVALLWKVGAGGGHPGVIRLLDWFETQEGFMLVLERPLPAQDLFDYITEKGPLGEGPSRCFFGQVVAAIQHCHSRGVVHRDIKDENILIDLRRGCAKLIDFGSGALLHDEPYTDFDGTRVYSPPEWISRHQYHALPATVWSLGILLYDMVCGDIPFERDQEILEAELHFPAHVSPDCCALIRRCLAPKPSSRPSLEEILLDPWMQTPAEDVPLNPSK
Source text: PIM2 In-Vitro Mobility Shift Assay
(§1) One may determine the activity of purified human His-PIM2 [23-299] enzyme in-vitro using a mobility shift assay on a Caliper LC3000 reader (Caliper, Mass.), which measures fluorescence of a phosphorylated and unphosphorylated FL-Ahx-Bad (FITC-(AHX)RSRHSSYPAGT-COOH, Primm 200606-00289, Primm Biotech, Mass.) and calculates a ratiometric value to determine percent turnover. One may express PIM2 (produced at AstraZeneca, R&D Boston) in E. coli cells with a typical yield of >90% purity.
One determines phosphorylation of the FL-Ahx-Bad in the presence and absence of the compound of interest. One preincubates 5 uL of Enzyme/Substrate/adenosine triphosphate (ATP) mix consisting of 2.4 nM […], 3.6 uM FL-Ahx-Bad, and 12 uM ATP in 1.2× buffer with 2 ul of compound for 20 minutes at 25° C. One initiates reactions with 5 uL of Metal mix consisting of 24 mM MgCl2 in 1.2× buffer and incubates at 25° C. for 90 minutes. One stops reactions by addition of 5 uL of Stop mix consisting of 100 mM HEPES, 121 mM ethylenediamine tetraacetic acid, 0.8% Coatin Reagent 3 (Caliper, Mass.), and 0.01% Tween. One detects phosphorylated and unphosphorylated substrate by a Caliper LC3000 reader (Caliper, Mass.) in the presence of separation buffer consisting of 100 mM HEPES, 16 mM ethylenediamine tetraacetic acid, 0.1% Coatin Reagent 3 (Caliper, Mass.), 0.015% Brij-35, 5% DMSO, and 5.6 mM MgCl2. One may use the following separation conditions for a Caliper LC3000: −1.0 PSI, −2000 V upstream voltage, −400 V downstream voltage, 0.2 second sample sip, 45 second post sip, 10% laser strength.

human His-PIM1 [2-313] = target: T2, human His-PIM1 [2-313] (Homo sapiens, UniProt P11309); assay: PIM1 in-vitro mobility shift assay (Caliper LC3000, FL-Ahx-Bad phosphorylation); type: biochemical; settings: 1.5 h; percent inhibition at 0.3 uM compound; read-out: PIM1 % I at 0.3 uM
T2 construct: purified human His-PIM1 [2-313] enzyme; His (N); purchased University of Dundee, Scotland; host or cells: baculovirus system
T2 sequence (P11309 2-313): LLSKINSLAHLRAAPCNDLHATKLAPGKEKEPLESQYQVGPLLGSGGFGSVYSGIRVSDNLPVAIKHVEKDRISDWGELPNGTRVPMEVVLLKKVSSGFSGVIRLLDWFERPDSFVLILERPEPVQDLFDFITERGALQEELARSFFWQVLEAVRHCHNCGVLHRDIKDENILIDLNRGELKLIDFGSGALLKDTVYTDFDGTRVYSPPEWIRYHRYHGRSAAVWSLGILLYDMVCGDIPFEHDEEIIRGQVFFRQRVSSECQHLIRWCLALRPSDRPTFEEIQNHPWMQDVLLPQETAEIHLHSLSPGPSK
Source text: PIM1 In-Vitro Mobility Shift Assay
as §1, with “His-PIM1 [2-313]” for “His-PIM2 [23-299]”, “PIM1 (University of Dundee, Scotland)” for “PIM2 (produced at AstraZeneca, R&D Boston)”, “baculovirus system” for “E. coli cells”, “>85%” for “>90%”
One determines phosphorylation of the FL-Ahx-Bad in the presence and absence of the compound of interest. One preincubates 5 µl of Enzyme/Substrate/adenosine triphosphate (ATP) mix consisting of 2.4 nM PIM1, 3.6 uM FL-Ahx-Bad, and 240 uM ATP in 1.2× buffer with 2 ul of compound for 20 minutes at 25° C. One initiates reactions with 5 ul of Metal mix consisting of 24 mM MgCl2 in 1.2× buffer and incubated at 25° C. for 90 minutes and stops the reactions by addition of 5 ul of Stop mix consisting of 100 mM HEPES, 121 mM ethylenediamine tetraacetic acid, 0.8% Coatin Reagent 3 (Caliper, Mass.), and 0.01% Tween. One detects phosphorylated and unphosphorylated substrate by a Caliper LC3000 reader (Caliper, Mass.) in the presence of separation buffer consisting of 100 mM HEPES, 16 mM ethylenediamine tetraacetic acid, 0.1% Coatin Reagent 3 (Caliper, Mass.), 0.015% Brij-35, 5% DMSO, and 5.6 mM MgCl2. One may use the following separation conditions for a Caliper LC3000: −1.0 PSI, −2000 V upstream voltage, −400 V downstream voltage, 0.2 second sample sip, 45 second post sip, 10% laser strength.
The table 1 below provides the percent inhibition of PIM1 at 0.3 micromolar for Examples provided herein. Several examples were tested more than once. Variations in the experimental outcomes, negative values, or values over 100% inhibition are presumably due to experimental error inherent in the assay.

SMILES	inhibition at 0.3 µM (human His-PIM2 [23-299]) [%]	inhibition at 0.3 µM (human His-PIM1 [2-313]) [%]
CN(C)C1CCN(c2ccc(C(N)=O)cc2/C=C2\SC(=O)NC2=O)C1 (centres unmarked) [Example 57, (Z)-4-(3-(dimethylamino)pyrrolidin-1-yl)-3-((2,4-dioxothiazolidin-5-ylidene)methyl)benzamide hydrochloride]	42.6	53.3
CC(C)(C)OC(=O)N1CCN(c2ccccc2/C=C2\SC(=O)NC2=O)CC1 [Example 58, (Z)-tert-butyl 4-(2-((2,4-dioxothiazolidin-5-ylidene)methyl)phenyl)piperazine-1-carboxylate]	7.1	16
COc1cc(/C=C2\SC(=O)NC2=O)ccc1OCCN1CCCCC1 [Example 59, (Z)-5-(3-methoxy-4-(2-(piperidin-1-yl)ethoxy)benzylidene)thiazolidine-2,4-dione]	6.6	< 5
O=C1NC(=O)/C(=C/c2ccccc2OCCO)S1 [Example 60, (Z)-5-(2-(2-hydroxyethoxy)benzylidene)thiazolidine-2,4-dione]	11.3	35.4
COc1ccc(OCCN2CCCCC2)c(/C=C2\SC(=O)NC2=O)c1 [Example 61, (Z)-5-(5-methoxy-2-(2-(piperidin-1-yl)ethoxy)benzylidene)thiazolidine-2,4-dione]	28.1	81.8
COc1ccc(OCCN2CCOCC2)c(/C=C2\SC(=O)NC2=O)c1 [Example 62, (Z)-5-(5-methoxy-2-(2-morpholinoethoxy)benzylidene)thiazolidine-2,4-dione]	17.5	62.1
CCN(CC)CCOc1ccc(OC)cc1/C=C1\SC(=O)NC1=O [Example 63, (Z)-5-(2-(2-(diethylamino)ethoxy)-5-methoxybenzylidene)thiazolidine-2,4-dione]	21.5	79.2
CCN(CC)CCOc1ccccc1/C=C1\SC(=O)NC1=O [Example 64, (Z)-5-(2-(2-(diethylamino)ethoxy)benzylidene)thiazolidine-2,4-dione]	25.7	86.5
COc1cc(/C=C2\SC(=O)NC2=O)c(-c2cccnc2)cc1OC [Example 65, (Z)-5-(4,5-dimethoxy-2-(pyridin-3-yl)benzylidene)thiazolidine-2,4-dione]	18.9	45.3
COc1cc(/C=C2\SC(=O)NC2=O)c(-c2ccncc2)cc1OC [Example 66, (Z)-5-(4,5-dimethoxy-2-(pyridin-4-yl)benzylidene)thiazolidine-2,4-dione]	20.9	50.3
O=C1NC(=O)/C(=C/c2n[nH]c3ccccc23)S1 [Example 68, (Z)-5-((1H-indazol-3-yl)methylene)thiazolidine-2,4-dione]	9	41.9
O=C1NC(=O)/C(=C/c2ccc[nH]c2=O)S1 [Example 70, (Z)-5-((2-oxo-1,2-dihydropyridin-3-yl)methylene)thiazolidine-2,4-dione]	< 5	< 5
O=C1NC(=O)/C(=C/c2cn[nH]c2)S1 [Example 71, (Z)-5-((1H-pyrazol-4-yl)methylene)thiazolidine-2,4-dione]	< 5	< 5
O=C1NC(=O)/C(=C/c2ccncc2)S1 [Example 72, (Z)-5-(pyridin-4-ylmethylene)thiazolidine-2,4-dione]	< 5	< 5
Cn1nnc2cc(/C=C3\SC(=O)NC3=O)ccc21 [Example 73, (5Z)-5-[(1-methyl-1H-1,2,3-benzotriazol-5-yl)methylene]-1,3-thiazolidine-2,4-dione]	< 5	< 5
Cn1ccc2ccc(/C=C3\SC(=O)NC3=O)cc21 [Example 75, (5Z)-5-[(1-methyl-1H-indol-6-yl)methylene]-1,3-thiazolidine-2,4-dione]	69.5	> 95
Cn1ccc2cc(/C=C3\SC(=O)NC3=O)ccc21 [Example 76, (5Z)-5-[(1-methyl-1H-indol-5-yl)methylene]-1,3-thiazolidine-2,4-dione]	27.6	59.6
O=C1NC(=O)/C(=C/c2ccc3ncccc3c2)S1 [Example 77, (5Z)-5-(quinolin-6-ylmethylene)-1,3-thiazolidine-2,4-dione trifluoroacetate]	22.7	51.2
O=C1NC(=O)/C(=C/c2ccc3[nH]ccc3c2)S1 [Example 78, (5Z)-5-(1H-indol-5-ylmethylene)-1,3-thiazolidine-2,4-dione]	30	71.4
O=C1NC(=O)/C(=C/c2ccc3cc[nH]c3c2)S1 [Example 79, (5Z)-5-(1H-indol-6-ylmethylene)-1,3-thiazolidine-2,4-dione trifluoroacetate]	60.7	90
O=C1NC(=O)/C(=C/c2ccccc2N2CCOCC2)S1 [Example 82, (5Z)-5-(2-morpholin-4-ylbenzylidene)-1,3-thiazolidine-2,4-dione]	58.2	87.4
CN1CCN(c2ccccc2/C=C2\SC(=O)NC2=O)CC1 [Example 84A, (5Z)-5-[2-(4-methylpiperazin-1-yl)benzylidene]-1,3-thiazolidine-2,4-dione]	54.3	92.9
NC(=O)COc1cccc(/C=C2\SC(=O)NC2=O)c1 [Example 84C, (Z)-2-(3-((2,4-dioxothiazolidin-5-ylidene)methyl)phenoxy)acetamide]	29.6	47.8
O=C1NC(=O)/C(=C/c2cccc(OCCCN3CCCCC3)c2)S1 [Example 84D, (Z)-5-(3-(3-(piperidin-1-yl)propoxy)benzylidene)thiazolidine-2,4-dione]	< 5	27.8
CN1CCN(Cc2cccc(/C=C3\SC(=O)NC3=O)c2)CC1 [Example 84E, (Z)-5-(3-((4-methylpiperazin-1-yl)methyl)benzylidene)thiazolidine-2,4-dione]	6.1	11.7
CN(C)CCN(C)S(=O)(=O)c1ccc(-c2ccccc2/C=C2\SC(=O)NC2=O)cc1 [Example 84F, (Z)-N-(2-(dimethylamino)ethyl)-2′-((2,4-dioxothiazolidin-5-ylidene)methyl)-N-methylbiphenyl-4-sulfonamide]	52.4	87.4
COc1ccc(N2CC[C@H](N(C)C)C2)c(C=C2SC(=O)NC2=O)c1 [Example 84G, (S)-5-(2-(3-(dimethylamino)pyrrolidin-1-yl)-5-methoxybenzylidene)thiazolidine-2,4-dione]	63	92
CN(C)[C@H]1CCN(c2ccc(C(F)(F)F)cc2C=C2SC(=O)NC2=O)C1 [Example 84H, (S)-5-(2-(3-(dimethylamino)pyrrolidin-1-yl)-5-(trifluoromethyl)benzylidene)thiazolidine-2,4-dione]	67	> 95
